Results: PubChem BioAssay AID1259407 (Chemical Carcinogenesis Research Information System (CCRIS), 2018)
Active and inactive are the calls of the source. No rule for the calls is given here.

System: CCRIS mutagenicity, Ames/micronucleus/aberration tests
Assay: CCRIS mutagenicity studies
[1] = Test System: AMES SALMONELLA TYPHIMURIUM, Strain/Indicator: TA98, Metabolic Activation: NONE, Method: PREINCUBATION
[2] = Test System: AMES SALMONELLA TYPHIMURIUM, Strain/Indicator: TA100, Metabolic Activation: NONE, Method: PREINCUBATION
[3] = Test System: AMES SALMONELLA TYPHIMURIUM, Strain/Indicator: TA98, Metabolic Activation: NONE, Method: STANDARD PLATE
[4] = Test System: AMES SALMONELLA TYPHIMURIUM, Strain/Indicator: TA100, Metabolic Activation: NONE, Method: STANDARD PLATE

With `Nc1ncnc2c1ncn2-c1cccc([N+](=O)[O-])c1` the mutagenic call (Test System: AMES SALMONELLA TYPHIMURIUM, Strain/Indicator: TA98(1,8-DNP), Metabolic Activation: NONE, Method: PREINCUBATION) was “active; positive”, the mutagenic call (Test System: AMES SALMONELLA TYPHIMURIUM, Strain/Indicator: TA98(1,8-DNP), Metabolic Activation: RAT, LIVER, S-9, PCB, Method: PREINCUBATION) was “active; positive” and the mutagenic call (Test System: AMES SALMONELLA TYPHIMURIUM, Strain/Indicator: TA98(NR), Metabolic Activation: NONE, Method: PREINCUBATION) was “inactive; negative”. For the same compound, the mutagenic call (Test System: AMES SALMONELLA TYPHIMURIUM, Strain/Indicator: TA98(NR), Metabolic Activation: RAT, LIVER, S-9, PCB, Method: PREINCUBATION) was “inactive; negative”, the mutagenic call [1] was “active; positive” and the mutagenic call (Test System: AMES SALMONELLA TYPHIMURIUM, Strain/Indicator: TA98, Metabolic Activation: RAT, LIVER, S-9, PCB, Method: PREINCUBATION) was “active; positive”. For the same compound, the mutagenic call (Test System: AMES SALMONELLA TYPHIMURIUM, Strain/Indicator: TA100(1,8-DNP), Metabolic Activation: NONE, Method: PREINCUBATION) was “active; positive”, the mutagenic call (Test System: AMES SALMONELLA TYPHIMURIUM, Strain/Indicator: TA100(1,8-DNP), Metabolic Activation: RAT, LIVER, S-9, PCB, Method: PREINCUBATION) was “active; positive” and the mutagenic call (Test System: AMES SALMONELLA TYPHIMURIUM, Strain/Indicator: TA100(NR), Metabolic Activation: NONE, Method: PREINCUBATION) was “inactive; negative”. The mutagenic call (Test System: AMES SALMONELLA TYPHIMURIUM, Strain/Indicator: TA100(NR), Metabolic Activation: RAT, LIVER, S-9, PCB, Method: PREINCUBATION) was “inactive; negative”, the mutagenic call [2] was “active; positive” and the mutagenic call (Test System: AMES SALMONELLA TYPHIMURIUM, Strain/Indicator: TA100, Metabolic Activation: RAT, LIVER, S-9, PCB, Method: PREINCUBATION) was “active; positive”. The mutagenic call (Test System: AMES SALMONELLA TYPHIMURIUM, Strain/Indicator: YG1020, Metabolic Activation: NONE, Method: PREINCUBATION) was “active; positive”, the mutagenic call (Test System: AMES SALMONELLA TYPHIMURIUM, Strain/Indicator: YG1020, Metabolic Activation: RAT, LIVER, S-9, PCB, Method: PREINCUBATION) was “active; positive” and the mutagenic call (Test System: AMES SALMONELLA TYPHIMURIUM, Strain/Indicator: YG1021, Metabolic Activation: NONE, Method: PREINCUBATION) was “active; positive”. For the same compound, the mutagenic call (Test System: AMES SALMONELLA TYPHIMURIUM, Strain/Indicator: YG1021, Metabolic Activation: RAT, LIVER, S-9, PCB, Method: PREINCUBATION) was “active; positive”, the mutagenic call (Test System: AMES SALMONELLA TYPHIMURIUM, Strain/Indicator: YG1024, Metabolic Activation: NONE, Method: PREINCUBATION) was “active; positive” and the mutagenic call (Test System: AMES SALMONELLA TYPHIMURIUM, Strain/Indicator: YG1024, Metabolic Activation: RAT, LIVER, S-9, PCB, Method: PREINCUBATION) was “active; positive”. The mutagenic call (Test System: AMES SALMONELLA TYPHIMURIUM, Strain/Indicator: YG1025, Metabolic Activation: NONE, Method: PREINCUBATION) was “active; positive”, the mutagenic call (Test System: AMES SALMONELLA TYPHIMURIUM, Strain/Indicator: YG1025, Metabolic Activation: RAT, LIVER, S-9, PCB, Method: PREINCUBATION) was “active; positive” and the mutagenic call (Test System: AMES SALMONELLA TYPHIMURIUM, Strain/Indicator: YG1026, Metabolic Activation: NONE, Method: PREINCUBATION) was “active; positive”. For the same compound, the mutagenic call (Test System: AMES SALMONELLA TYPHIMURIUM, Strain/Indicator: YG1026, Metabolic Activation: RAT, LIVER, S-9, PCB, Method: PREINCUBATION) was “active; positive”, the mutagenic call (Test System: AMES SALMONELLA TYPHIMURIUM, Strain/Indicator: YG1029, Metabolic Activation: NONE, Method: PREINCUBATION) was “active; positive” and the mutagenic call (Test System: AMES SALMONELLA TYPHIMURIUM, Strain/Indicator: YG1029, Metabolic Activation: RAT, LIVER, S-9, PCB, Method: PREINCUBATION) was “active; positive”.
With `Nc1nc(Cl)cc(Cl)n1` the mutagenic call (Test System: AMES SALMONELLA TYPHIMURIUM, Strain/Indicator: TA98, Metabolic Activation: HAMSTER, LIVER, S-9, AROCLOR 1254, Method: STANDARD PLATE) was “inactive; negative”, the mutagenic call [3] was “inactive; negative” and the mutagenic call (Test System: AMES SALMONELLA TYPHIMURIUM, Strain/Indicator: TA98, Metabolic Activation: RAT, LIVER, S-9, AROCLOR 1254, Method: STANDARD PLATE) was “inactive; negative”. The mutagenic call (Test System: AMES SALMONELLA TYPHIMURIUM, Strain/Indicator: TA100, Metabolic Activation: HAMSTER, LIVER, S-9, AROCLOR 1254, Method: STANDARD PLATE) was “inactive; negative”, the mutagenic call [4] was “inactive; negative” and the mutagenic call (Test System: AMES SALMONELLA TYPHIMURIUM, Strain/Indicator: TA100, Metabolic Activation: RAT, LIVER, S-9, AROCLOR 1254, Method: STANDARD PLATE) was “inactive; negative”. The mutagenic call (Test System: AMES SALMONELLA TYPHIMURIUM, Strain/Indicator: TA1535, Metabolic Activation: HAMSTER, LIVER, S-9, AROCLOR 1254, Method: STANDARD PLATE) was “inactive; negative”, the mutagenic call (Test System: AMES SALMONELLA TYPHIMURIUM, Strain/Indicator: TA1535, Metabolic Activation: NONE, Method: STANDARD PLATE) was “inactive; negative” and the mutagenic call (Test System: AMES SALMONELLA TYPHIMURIUM, Strain/Indicator: TA1535, Metabolic Activation: RAT, LIVER, S-9, AROCLOR 1254, Method: STANDARD PLATE) was “inactive; negative”. For the same compound, the mutagenic call (Test System: AMES SALMONELLA TYPHIMURIUM, Strain/Indicator: TA1537, Metabolic Activation: HAMSTER, LIVER, S-9, AROCLOR 1254, Method: STANDARD PLATE) was “inactive; negative”, the mutagenic call (Test System: AMES SALMONELLA TYPHIMURIUM, Strain/Indicator: TA1537, Metabolic Activation: NONE, Method: STANDARD PLATE) was “inactive; negative” and the mutagenic call (Test System: AMES SALMONELLA TYPHIMURIUM, Strain/Indicator: TA1537, Metabolic Activation: RAT, LIVER, S-9, AROCLOR 1254, Method: STANDARD PLATE) was “inactive; negative”. The mutagenic call (Test System: AMES SALMONELLA TYPHIMURIUM, Strain/Indicator: TA1538, Metabolic Activation: HAMSTER, LIVER, S-9, AROCLOR 1254, Method: STANDARD PLATE) was “inactive; negative”, the mutagenic call (Test System: AMES SALMONELLA TYPHIMURIUM, Strain/Indicator: TA1538, Metabolic Activation: NONE, Method: STANDARD PLATE) was “inactive; negative” and the mutagenic call (Test System: AMES SALMONELLA TYPHIMURIUM, Strain/Indicator: TA1538, Metabolic Activation: RAT, LIVER, S-9, AROCLOR 1254, Method: STANDARD PLATE) was “inactive; negative”. For the same compound, the mutagenic call (Test System: MOUSE LYMPHOMA, Strain/Indicator: L5178Y (TK+/TK-), Metabolic Activation: NONE, Method: SUSPENSION/PLATE) was “active; positive. reevaluation of results: positive” and the mutagenic call (Test System: MOUSE LYMPHOMA, Strain/Indicator: L5178Y (TK+/TK-), Metabolic Activation: RAT, LIVER, S-9, AROCLOR 1254, Method: SUSPENSION/PLATE) was “active; positive. reevaluation of results: inconclusive”.
For `CSC[C@H](N)C(=O)O`, the mutagenic call [1] was “inactive; negative”, the mutagenic call (Test System: AMES SALMONELLA TYPHIMURIUM, Strain/Indicator: TA98, Metabolic Activation: RAT, LIVER OR KIDNEY, MICROSOMES, Method: PREINCUBATION) was “inactive; negative” and the mutagenic call [2] was “inactive; negative”. For the same compound, the mutagenic call (Test System: AMES SALMONELLA TYPHIMURIUM, Strain/Indicator: TA100, Metabolic Activation: RAT, LIVER OR KIDNEY, MICROSOMES, Method: PREINCUBATION) was “inactive; negative”, the mutagenic call (Test System: AMES SALMONELLA TYPHIMURIUM, Strain/Indicator: TA102, Metabolic Activation: NONE, Method: PREINCUBATION) was “inactive; negative” and the mutagenic call (Test System: AMES SALMONELLA TYPHIMURIUM, Strain/Indicator: TA102, Metabolic Activation: RAT, LIVER OR KIDNEY, MICROSOMES, Method: PREINCUBATION) was “inactive; negative”. For the same compound, the mutagenic call (Test System: AMES SALMONELLA TYPHIMURIUM, Strain/Indicator: TA2638, Metabolic Activation: NONE, Method: PREINCUBATION) was “inactive; negative” and the mutagenic call (Test System: AMES SALMONELLA TYPHIMURIUM, Strain/Indicator: TA2638, Metabolic Activation: RAT, LIVER OR KIDNEY, MICROSOMES, Method: PREINCUBATION) was “inactive; negative”.
For `O=[N+]([O-])c1cc2[nH]c3ccc4ccc(O)cc4c3c2c2ccccc12`, the mutagenic call [3] was “active; positive”, the mutagenic call (Test System: AMES SALMONELLA TYPHIMURIUM, Strain/Indicator: TA98, Metabolic Activation: RAT, LIVER, S-9, 3-METHYLCHOLANTHRENE, Method: STANDARD PLATE) was “active; positive” and the mutagenic call [4] was “active; positive”. For the same compound, the mutagenic call (Test System: AMES SALMONELLA TYPHIMURIUM, Strain/Indicator: TA100, Metabolic Activation: RAT, LIVER, S-9, 3-METHYLCHOLANTHRENE, Method: STANDARD PLATE) was “active; positive”.
For `O/C=C/Cc1ccc2c(c1)OCO2`, the mutagenic call (Test System: UDS HUMAN FIBROBLASTS, Strain/Indicator: THY INCORP (NON-S-PHASE), Metabolic Activation: NONE, Method: AUTORADIOGRAPHY) was “active; positive”.
With `CC(=O)N1CCc2cc([N+](=O)[O-])ccc21` the mutagenic call (End Point: IN VITRO CHROMOSOMAL ABERRATIONS, Test System: CHL CELLS, Metabolic Activation: RAT, LIVER, S-9, SODIUM PHENOBARBITAL AND 5,6-BENZOFLAVONE) was “inactive; negative”.
